Tests used:
[1] = target: T1, IGF-1R (Homo sapiens (Human), UniProt P08069); experiment: Example B-1: IGF-1R Assay (PC3 cells, IGF1 stimulation, AlphaLISA); type: cell-based; settings: 200 ng/mL IGF1 stimulation, read-out: Biological Activity against IGF-1R IC50
Summary of the method: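 PC3 cells were serum-starved 2 h, treated with serially diluted compounds for 2 h, then stimulated with IGF1 (200 ng/mL final) for 30 min. Lysates were read by AlphaLISA; % inhibition was calculated relative to vehicle and EC80 controls, with IC50 values binned into ranges.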
Target sequence in this assay (P08069 31-1367): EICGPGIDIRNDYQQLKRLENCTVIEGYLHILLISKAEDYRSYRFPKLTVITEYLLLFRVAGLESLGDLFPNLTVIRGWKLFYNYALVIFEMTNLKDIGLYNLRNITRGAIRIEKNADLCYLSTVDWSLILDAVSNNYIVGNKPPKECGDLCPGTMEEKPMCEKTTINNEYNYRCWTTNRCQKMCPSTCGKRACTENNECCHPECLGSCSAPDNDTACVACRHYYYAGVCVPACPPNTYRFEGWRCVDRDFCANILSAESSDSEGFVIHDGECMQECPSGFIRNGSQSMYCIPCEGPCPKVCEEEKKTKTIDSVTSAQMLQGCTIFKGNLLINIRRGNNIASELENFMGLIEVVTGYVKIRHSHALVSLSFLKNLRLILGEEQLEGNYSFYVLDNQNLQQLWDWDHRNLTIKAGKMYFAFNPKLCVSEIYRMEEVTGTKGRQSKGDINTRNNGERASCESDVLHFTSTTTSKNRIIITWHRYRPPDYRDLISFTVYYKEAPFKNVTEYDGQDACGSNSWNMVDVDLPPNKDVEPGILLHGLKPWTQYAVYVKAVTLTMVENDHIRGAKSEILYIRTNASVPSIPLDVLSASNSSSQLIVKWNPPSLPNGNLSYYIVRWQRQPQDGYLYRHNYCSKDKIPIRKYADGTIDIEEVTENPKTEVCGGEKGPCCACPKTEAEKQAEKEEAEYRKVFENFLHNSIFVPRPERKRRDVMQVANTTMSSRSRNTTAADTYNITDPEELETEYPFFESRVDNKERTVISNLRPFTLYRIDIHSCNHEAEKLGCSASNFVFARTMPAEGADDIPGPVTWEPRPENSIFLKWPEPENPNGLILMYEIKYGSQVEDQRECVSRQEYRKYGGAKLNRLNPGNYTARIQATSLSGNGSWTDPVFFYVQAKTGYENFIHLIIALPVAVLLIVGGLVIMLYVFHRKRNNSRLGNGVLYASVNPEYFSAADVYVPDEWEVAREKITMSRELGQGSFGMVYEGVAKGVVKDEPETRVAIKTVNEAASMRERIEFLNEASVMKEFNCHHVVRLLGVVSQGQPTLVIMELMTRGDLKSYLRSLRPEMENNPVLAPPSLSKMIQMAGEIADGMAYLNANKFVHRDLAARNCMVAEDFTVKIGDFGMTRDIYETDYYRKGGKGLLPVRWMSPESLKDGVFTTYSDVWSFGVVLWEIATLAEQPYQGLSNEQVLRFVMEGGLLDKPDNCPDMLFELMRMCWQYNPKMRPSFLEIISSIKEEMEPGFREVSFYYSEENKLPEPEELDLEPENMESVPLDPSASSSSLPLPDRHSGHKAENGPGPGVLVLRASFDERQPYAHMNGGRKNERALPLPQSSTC

[2] = target: T1, IGF-1R; experiment: Example B-2: IGF-1R Assay (PathHunter cell lines, EC80 agonist challenge); type: cell-based; settings: read-out: IC50 (Biological Activity against IGF-1R)
Description: PathHunter cell lines were expanded from freezer stocks according to standard procedures. Cells were seeded in a total volume of 20 μL into white walled, 384-well microplates and incubated for the appropriate time prior to testing.
Cells are pre-incubated with compound followed by EC80 agonist challenge as follows: • 1. Intermediate dilution of sample stocks was performed to generate 5× sample in assay buffer. • 2. 5 μL of 5× sample was added to cells and incubated at 37° C. for 60 minutes. Vehicle concentration was 1%. • 3. 5 μL of 6×EC80 agonist in assay buffer was added to the cells and incubated at room temperature for 3 hours.
Assay signal was generated through a single addition of 12.5 or 15 μL (50% v/v) of PathHunter Detection reagent cocktail for agonist and antagonist assays respectively, followed by a one hour incubation at room temperature. Microplates were read following signal generation with a PerkinElmer Envision™ instrument for chemilumine-scent signal detection.
Compound activity was analyzed using CBIS data analysis suite (ChemInnovation, CA). Percentage inhibition was calculated using the following formula: % Inhibition=100%×(1−(mean RLU of test sample−mean RLU of vehicle control)/(mean RLU of EC80 control−mean RLU of vehicle control)). The activity for representative examples of the invention is shown in the following table, wherein A: IC50≤500 nM; B: 500 nM<IC50≤2 μM; C: […]≤10 μM; D: IC50>[…].
Target sequence in this assay (P08069 31-1367, species assumed): as the sequence (P08069 31-1367) above

| Compound | IC50 [1] [nM] | IC50 [2] [nM] |
| --- | --- | --- |
| COc1nc(C2CCOCC2)ccc1Nc1nccc(Nc2cc3cccc(F)c3[nH]c2=O)n1 [Compound 224, 8-fluoro-3-{2-[2-methoxy-6-(tetrahydro-2H-pyran-4-yl)-3-pyridylamino]-4-pyrimidinylamino}-1,2-dihydro-2-quinolinone] | ≤ 500 | 500 to 2000 |
| COc1nc(C2CCN(CC#N)CC2)ccc1Nc1nccc(Nc2cc3cccc(F)c3[nH]c2=O)n1 [Compound 212, (4-{5-[4-(8-fluoro-2-oxo-1,2-dihydro-3-quinolylamino)-2-pyrimidinylamino]-6-methoxy-2-pyridyl}-1-piperidyl)acetonitrile] | ≤ 500 | 500 to 2000 |
| COc1cc(Nc2nccc(Nc3cc4cc(Cl)ccc4[nH]c3=O)n2)ccc1O[C@H]1C[C@H](N(C)C)C1 [Compound 109, 6-chloro-3-(2-{3-methoxy-4-[(1r,3r)-3-(dimethylamino)cyclobutoxy]phenyl-amino}-4-pyrimidinylamino)-1,2-dihydro-2-quinolinone] | ≤ 500 | 500 to 2000 |
| COc1cc([C@H]2CC[C@@](C)(O)CC2)ccc1Nc1nccc(Nc2cc3cccc(F)c3[nH]c2=O)n1 [Compound 216, 8-fluoro-3-(2-{2-methoxy-4-[(1r,4r)-4-hydroxy-4-methylcyclohexyl]phenylamino}-4-pyrimidinylamino)-1,2-dihydro-2-quinolinone] | ≤ 500 | ≤ 500 |
| CN(C)C[C@@H]1COc2cc(Nc3nccc(Nc4cnc5ccc(Cl)cc5c4)n3)ccc2O1 [Compound 145, (R)—N4-(6-chloroquinolin-3-yl)-N2-(2-((dimethylamino)methyl)-2,3-dihydrobenzo[b][1,4]dioxin-6-yl)pyrimidine-2,4-diamine] | ≤ 500 | ≤ 500 |
| COc1cc(Nc2nccc(Nc3cc4cccc(F)c4[nH]c3=O)n2)ccc1C1CCOCC1 [Compound 219, 8-fluoro-3-{2-[3-methoxy-4-(tetrahydro-2H-pyran-4-yl)phenylamino]-4-pyrimidinylamino}-1,2-dihydro-2-quinolinone] | ≤ 500 | > 10000 |
| COc1cc(N2CCNC(C(F)F)C2)ncc1Nc1nccc(Nc2cc3cccc(F)c3[nH]c2=O)n1 (stereo not drawn) [Compound 218, 3-(2-{6-[3-(difluoromethyl)-1-piperazinyl]-4-methoxy-3-pyridylamino}-4-pyrimidinylamino)-8-fluoro-1,2-dihydro-2-quinolinone] | ≤ 500 | 500 to 2000 |
| COc1cc(Nc2nccc(Nc3cnc4cc(F)c(F)cc4c3)n2)ccc1O[C@H]1C[C@@H](N(C)C)C1 [Compound 115, 4-(6,7-difluoro-3-quinolylamino)-2-{3-methoxy-4-[(1s,3s)-3-(dimethylamino)cyclobutoxy]phenylamino}pyrimidine] | ≤ 500 | 500 to 2000 |
| c1ccc2ncc(Nc3ccnc(Nc4ccc5ccn(CC6CCCCC6)c5c4)n3)cc2c1 [Compound 503, 2-[1-(cyclohexylmethyl)-6-indolylamino]-4-(3-quinolylamino)pyrimidine] | 2000 to 10000 | 2000 to 10000 |
| COc1cc(N2CCN(C)CC2)ccc1Nc1nccc(Nc2cnc3ccc(Br)cc3c2)n1 [Compound 466, 4-(6-bromo-3-quinolylamino)-2-[2-methoxy-4-(4-methyl-1-piperazinyl)phenylamino] pyrimidine] | ≤ 500 | 500 to 2000 |
| COc1cc(C2CCOCC2)ncc1Nc1nccc(Nc2cc3cccc(F)c3[nH]c2=O)n1 [Compound 214, 8-fluoro-3-{2-[4-methoxy-6-(tetrahydro-2H-pyran-4-yl)-3-pyridylamino]-4-pyrimidinylamino}-1,2-dihydro-2-quinolinone] | ≤ 500 | ≤ 500 |
| COc1cc(Nc2nccc(Nc3cnc4ccccc4c3)n2)ccc1O[C@H]1C[C@@H](N(C)C)C1 [Compound 204, 2-{3-methoxy-4-[(1s,3s)-3-(dimethylamino)cyclobutoxy]phenylamino}-4-(3-quinolylamino)pyrimidine] | ≤ 500 | ≤ 500 |
| CN(C)CC(=O)N1CCc2ccc(Nc3nccc(Nc4cnc5ccc(Br)cc5c4)n3)cc21 [Compound 130, 1-(6-((4-((6-bromoquinolin-3-yl)amino)pyrimidin-2-yl)amino)indolin-1-yl)-2-(dimethylamino)ethan-1-one] | ≤ 500 | ≤ 500 |
| CN(C)CC(=O)N1CCc2cc(Nc3nccc(Nc4cnc5ccc(Cl)cc5c4)n3)ccc21 [Compound 146, 1-(5-((4-((6-chloroquinolin-3-yl)amino)pyrimidin-2-yl)amino)indolin-1-yl)-2-(dimethylamino)ethan-1-one] | ≤ 500 | ≤ 500 |
| COc1cc(Nc2nccc(Nc3cnc4ccc(Cl)cc4c3)n2)ccc1O[C@H]1C[C@H](N(C)C)C1 [Compound 195, 4-(6-chloro-3-quinolylamino)-2-{3-methoxy-4-[(1r,3r)-3-(dimethylamino)cyclobutoxy]phenylamino}pyrimidine] | ≤ 500 | ≤ 500 |
| CN(C)CC(=O)N1CCc2ccc(Nc3nccc(Nc4cnc5ccccc5c4)n3)cc21 [Compound 92, 2-(dimethylamino)-1-{6-[4-(3-quinolylamino)-2-pyrimidinylamino]-1-indolinyl}-1-ethanone] | ≤ 500 | ≤ 500 |
| CN(C)CC1COc2cc(Nc3nccc(Nc4cnc5cc(F)c(F)cc5c4)n3)ccc2O1 (stereo not drawn) [Compound 169, 4-(6,7-difluoro-3-quinolylamino)-2-{2-[(dimethylamino)methyl]-2,3-dihydro-1,4-benzodioxin-6-ylamino}pyrimidine] | ≤ 500 | ≤ 500 |
| COc1cc(Nc2nccc(Nc3cc4cccc(F)c4[nH]c3=O)n2)cnc1N1CCC(C)(O)CC1 [Compound 159, 8-fluoro-3-((2-((6-(4-hydroxy-4-methylpiperidin-1-yl)-5-methoxypyridin-3-yl)amino)pyrimidin-4-yl)amino)quinolin-2(1H)-one] | ≤ 500 | 500 to 2000 |
| COc1cc(Nc2nccc(Nc3cnc4ccccc4c3)n2)ccc1O[C@H]1C[C@@H](N2CCOCC2)C1 [Compound 21, 2-{3-methoxy-4-[(1s,3s)-3-morpholinocyclobutoxy]phenylamino}-4-(3-quinolylamino)pyrimidine] | ≤ 500 | ≤ 500 |
| COc1cc(Nc2nccc(Nc3cnc4cc(F)c(F)cc4c3)n2)c(Cl)cc1O[C@H]1C[C@@H](N(C)C)C1 [Compound 153, N2-(2-chloro-4-((1s,3s)-3-(dimethylamino)cyclobutoxy)-5-methoxyphenyl)-N4-(6,7-difluoroquinolin-3-yl)pyrimidine-2,4-diamine] | ≤ 500 | ≤ 500 |
| COc1cc(Nc2nccc(Nc3cnc4ccccc4c3)n2)ccc1N1CCN(C)CC1 [Compound 94, 2-[3-methoxy-4-(4-methyl-1-piperazinyl)phenylamino]-4-(3-quinolylamino)pyrimidine] | ≤ 500 | ≤ 500 |
| COc1cc(N2CCNC3(CC3)C2)ncc1Nc1nccc(Nc2cnc3ccc(Cl)cc3c2)n1 [Compound 496, 4-(6-chloro-3-quinolylamino)-2-{6-(4,7-diaza-7-spiro[2.5]octyl)-4-methoxy-3-pyridylamino}pyrimidine] | ≤ 500 | 500 to 2000 |
| CN(C)C[C@H]1COc2cc(Nc3nccc(Nc4cnc5ccc(Cl)cc5c4)n3)ccc2O1 [Compound 144, (S)—N4-(6-chloroquinolin-3-yl)-N2-(2-((dimethylamino)methyl)-2,3-dihydrobenzo[b][1,4]dioxin-6-yl)pyrimidine-2,4-diamine] | ≤ 500 | ≤ 500 |
| COc1cc([C@H]2CC[C@](C)(O)CC2)ccc1Nc1nccc(Nc2cc3cccc(F)c3[nH]c2=O)n1 [Compound 215, 8-fluoro-3-(2-{2-methoxy-4-[(1s,4s)-4-hydroxy-4-methylcyclohexyl]phenylamino}-4-pyrimidinylamino)-1,2-dihydro-2-quinolinone] | ≤ 500 | ≤ 500 |
| CN(C)CCN1CCc2ccc(Nc3nccc(Nc4cnc5ccccc5c4)n3)cc21 [Compound 143, N2-(1-(2-(dimethylamino)ethyl)indolin-6-yl)-N4-(quinolin-3-yl)pyrimidine-2,4-diamine] | ≤ 500 | ≤ 500 |
| c1ccc2ncc(Nc3ccnc(Nc4ccc5c(c4)OCCO5)n3)cc2c1 [Compound 505, 2-(2,3-dihydro-1,4-benzodioxin-6-ylamino)-4-(3-quinolylamino)pyrimidine] | ≤ 500 | ≤ 500 |
| COc1cc(Nc2nccc(Nc3cnc4c(F)c(F)ccc4c3)n2)cnc1O[C@H]1C[C@@H](N(C)C)C1 [Compound 291, 4-(7,8-difluoro-3-quinolylamino)-2-{5-methoxy-6-[(1s,3s)-3-(dimethylamino)cyclobutoxy]-3-pyridylamino}pyrimidine] | ≤ 500 | 500 to 2000 |

From patent US20250171431A1, “HETEROCYCLIC INHIBITORS OF IGF-1R FOR TREATMENT OF DISEASE” (HORIZON THERAPEUTICS IRELAND DAC, priority 2023, published 2025)
